Experimental data: patent publication US9493411B2 (AbbVie Inc., priority 2013, dated 2016)
pKi: −log10 of the molar value.

How the values were obtained:
[1] = molecular target: T1, BRD4 (BDI_K57-E168) (Homo sapiens, UniProt O60885); assay: TR-FRET bromodomain binding assay, BRD4 first bromodomain; conditions: His-tagged BD1, Alexa647-labeled probe 100 nM; Ki calculated from IC50
T1 construct: BD1: amino acids K57-E168; made in house
Protocol: (§1) A time-resolved fluorescence resonance energy transfer (TR-FRET) assay was used to determine the affinities of compounds of the Examples listed in Table 1 for each bromodomain of BRD4. His-tagged first (BD1: amino acids K57-E168) and second (BD2: amino acids E352-E168) bromodomains of BRD4 were expressed and purified. An Alexa647-labeled BET-inhibitor was used as the fluorescent probe in the assay.
(§2) Compound dilution series were prepared in DMSO via a 3-fold serial dilution from 2.5 mM to 42 nM. Compounds were then diluted 6:100 in assay buffer (20 mM Sodium Phosphate, pH 6.0, 50 mM NaCl, 1 mM Ethylenediaminetetraacetic acid disodium salt dihydrate, 0.01% Triton X-100, 1 mM DL-Dithiothreitol) to yield 3× working solutions. Six microliters (μL) of the working solution was then transferred to white, low-volume assay plates (Costar #3673). A 1.5× assay mixture containing His-tagged bromodomain, Europium-conjugated anti-His antibody (Invitrogen PV5596) and the Alexa-647-conjugated probe molecule was also prepared. Twelve μL of this solution were added to the assay plate to reach a final volume of 18 μL. The final concentration of 1× assay buffer contains 2% DMSO, 50 μM-0.85 nM compound, 8 nM His-tagged bromodomain, 1 nM Europium-conjugated anti-His-tag antibody and 100 nM or 30 nM probe (for BDI or BDII, respectively). After a one-hour incubation at room temperature, TR-FRET ratios were determined using an Envision multilabel plate reader (Ex 340, Em […]).
(§3) TR-FRET data were normalized to the means of 24 no-compound controls (“high”) and 8 controls containing 1 μM un-labeled probe (“low”). Percent inhibition was plotted as a function of compound concentration and the data were fit with the 4 parameter logistic equation to obtain IC50s. Inhibition constants (Ki) were calculated from the IC50s, probe Kd and probe concentration. Typical Z′ values were between 0.65 and 0.75. The minimum significant ratio was determined to evaluate assay reproducibility (Eastwood et al., (2006) J Biomol Screen, 11: 253-261). The MSR was determined to be 2.03 for BDI and 1.93 for BDII, and a moving MSR (last six run MSR overtime) for both BDI and BDII was typically <3.

[2] = molecular target: T2, BRD4 (BDII_E352-M457) (Homo sapiens, UniProt O60885); assay: TR-FRET bromodomain binding assay, BRD4 second bromodomain; conditions: His-tagged BD2, Alexa647-labeled probe 30 nM; Ki calculated from IC50
T2 construct: made in house
Protocol: as §1, §2, §3

SMILES	pKi [1]	pKi [2]
Cc1[nH]c(-c2ccc(-c3cnn(C)c3)cc2)cc1C(N)=O [Example 103, 2-methyl-5-[4-(1-methyl-1H-pyrazol-4-yl)phenyl]-1H-pyrrole-3-carboxamide]	5.33	5.46
CCc1ccc(Oc2ccccc2-c2cc(C(N)=O)c(C)[nH]2)cc1 [Example 143, 5-[2-(4-ethylphenoxy)phenyl]-2-methyl-1H-pyrrole-3-carboxamide]	6.59	5.68
Cc1noc(C)c1-c1ccc(-c2cc(C(N)=O)c(C)[nH]2)cc1 [Example 92, 5-[4-(3,5-dimethyl-1,2-oxazol-4-yl)phenyl]-2-methyl-1H-pyrrole-3-carboxamide]	5.77	5.61
Cc1[nH]c(-c2cccc(-c3ccccc3)c2)cc1C(N)=O [Example 150, 5-(biphenyl-3-yl)-2-methyl-1H-pyrrole-3-carboxamide]	4.97	5.01
Cc1[nH]c(-c2ccc(-c3cnn(Cc4ccccc4)c3)cc2)cc1C(N)=O [Example 111, 5-[4-(1-benzyl-1H-pyrazol-4-yl)phenyl]-2-methyl-1H-pyrrole-3-carboxamide]	5.16	5.24
CC(=O)Nc1cccc(-c2cc(C(N)=O)c(C)[nH]2)c1 [Example 5, 5-[3-(acetylamino)phenyl]-2-methyl-1H-pyrrole-3-carboxamide]	5.09	5.19
Cc1[nH]c(-c2ccc(N)cc2)cc1C(N)=O [Example 8, 5-(4-aminophenyl)-2-methyl-1H-pyrrole-3-carboxamide]	5.57	5.43
Cc1[nH]c(-c2c(F)cccc2F)cc1C(N)=O [Example 147, 5-(2,6-difluorophenyl)-2-methyl-1H-pyrrole-3-carboxamide]	4.92	4.91
Cc1[nH]c(-c2ccccc2N(Cc2cccs2)CC2CCCC2)cc1C(N)=O [Example 60, 5-{2-[(cyclopentylmethyl)(thiophen-2-ylmethyl)amino]phenyl}-2-methyl-1H-pyrrole-3-carboxamide]	5.29	4.69
Cc1[nH]c(-c2ccc([N+](=O)[O-])cc2)cc1C(N)=O [Example 7, 2-methyl-5-(4-nitrophenyl)-1H-pyrrole-3-carboxamide]	5.79	5.16
Cc1[nH]c(-c2ccc(-c3ccncc3)cc2)cc1C(N)=O [Example 102, 2-methyl-5-[4-(pyridin-4-yl)phenyl]-1H-pyrrole-3-carboxamide]	5.25	5.36
Cc1[nH]c(-c2ccccc2Oc2ccc(S(C)(=O)=O)cc2)cc1C(N)=O [Example 132, 2-methyl-5-{2-[4-(methylsulfonyl)phenoxy]phenyl}-1H-pyrrole-3-carboxamide]	4.96	
Cc1[nH]c(-c2ccccc2NS(=O)(=O)c2ccc(F)cc2F)cc1C(N)=O [Example 84, 5-(2-{[(2,4-difluorophenyl)sulfonyl]amino}-phenyl)-2-methyl-1H-pyrrole-3-carboxamide]	4.97	
Cc1[nH]c(-c2ccccc2Oc2cccc3ccccc23)cc1C(N)=O [Example 140, 2-methyl-5-[2-(naphthalen-1-yloxy)phenyl]-1H-pyrrole-3-carboxamide]	6.22	5.89
Cc1[nH]c(-c2cccc(-c3ccsc3)c2)cc1C(N)=O [Example 152, 2-methyl-5-[3-(thiophen-3-yl)phenyl]-1H-pyrrole-3-carboxamide]	5.33	5.10
Cc1[nH]c(-c2cccc([N+](=O)[O-])c2)cc1C(N)=O [Example 3, 2-methyl-5-(3-nitrophenyl)-1H-pyrrole-3-carboxamide]	5.63	5.14
COc1cccc(-c2cccc(-c3cc(C(N)=O)c(C)[nH]3)c2)c1 [Example 151, 5-(3′-methoxybiphenyl-3-yl)-2-methyl-1H-pyrrole-3-carboxamide]	4.98	
Cc1[nH]c(-c2ccccc2NCc2cccc(NC(=O)OC(C)(C)C)c2)cc1C(N)=O [Example 51, tert-butyl [3-({[2-(4-carbamoyl-5-methyl-1H-pyrrol-2-yl)phenyl]amino}methyl)phenyl]carbamate]	5.17	
Cc1[nH]c(-c2ccccc2NCc2ccc(NC(=O)OC(C)(C)C)cc2)cc1C(N)=O [Example 50, tert-butyl [4-({[2-(4-carbamoyl-5-methyl-1H-pyrrol-2-yl)phenyl]amino}methyl)phenyl]carbamate]	5.30	
CC(=O)n1cc(CN(CC2CCCC2)c2ccccc2-c2cc(C(N)=O)c(C)[nH]2)c2ccccc21 [Example 58, 5-(2-{[(1-acetyl-1H-indol-3-yl)methyl](cyclopentylmethyl)amino}phenyl)-2-methyl-1H-pyrrole-3-carboxamide]	5.33	
Cc1[nH]c(-c2cccc(/C=C/c3ccccc3)c2)cc1C(N)=O [Example 157, 2-methyl-5-{3-[(E)-2-phenylethenyl]phenyl}-1H-pyrrole-3-carboxamide]	5.13	
Cc1[nH]c(-c2cccc(Oc3ccc4c(c3)OCO4)c2)cc1C(N)=O [Example 160, 5-[3-(1,3-benzodioxol-5-yloxy)phenyl]-2-methyl-1H-pyrrole-3-carboxamide]	4.94	
COc1ccc(CN(CC2CCCC2)c2ccccc2-c2cc(C(N)=O)c(C)[nH]2)cc1 [Example 61, 5-{2-[(cyclopentylmethyl)(4-methoxybenzyl)amino]phenyl}-2-methyl-1H-pyrrole-3-carboxamide]	5.08	

Now from value to compound:

pKi [1]	pKi [2]	SMILES
5.40	6.15	Cc1[nH]c(-c2ccccc2NS(=O)(=O)c2ccccc2)cc1C(N)=O [Example 78, 2-methyl-5-{2-[(phenylsulfonyl)amino]phenyl}-1H-pyrrole-3-carboxamide]
5.51	5.46	COc1ccc(CNc2ccccc2-c2cc(C(N)=O)c(C)[nH]2)cc1 [Example 30, 5-{2-[(4-methoxybenzyl)amino]phenyl}-2-methyl-1H-pyrrole-3-carboxamide]
5.53	4.67	CC(=O)Nc1ccccc1-c1cc(C(N)=O)c(C)[nH]1 [Example 2, 5-[2-(acetylamino)phenyl]-2-methyl-1H-pyrrole-3-carboxamide]
5.98		Cc1[nH]c(-c2ccccc2NC2CCNC2)cc1C(N)=O (stereo not shown) [Example 64, 2-methyl-5-[2-(pyrrolidin-3-ylamino)phenyl]-1H-pyrrole-3-carboxamide]
5.53	5.44	Cc1[nH]c(-c2ccccc2NCc2c(F)cccc2F)cc1C(N)=O [Example 22, 5-{2-[(2,6-difluorobenzyl)amino]phenyl}-2-methyl-1H-pyrrole-3-carboxamide]
5.56	5.36	Cc1ccc(CNc2ccccc2-c2cc(C(N)=O)c(C)[nH]2)cc1 [Example 29, 2-methyl-5-{2-[(4-methylbenzyl)amino]phenyl}-1H-pyrrole-3-carboxamide]
6.20	4.91	Cc1[nH]c(-c2ccccc2NC2CCNCC2)cc1C(N)=O [Example 65, 2-methyl-5-[2-(piperidin-4-ylamino)phenyl]-1H-pyrrole-3-carboxamide]
5.54	5.60	Cc1[nH]c(-c2ccccc2NCc2ccc(Cl)cc2)cc1C(N)=O [Example 11, 5-{2-[(4-chlorobenzyl)amino]phenyl}-2-methyl-1H-pyrrole-3-carboxamide]
6.04	5.58	Cc1[nH]c(-c2ccccc2NS(=O)(=O)C2CCCCC2)cc1C(N)=O [Example 79, 5-{2-[(cyclohexylsulfonyl)amino]phenyl}-2-methyl-1H-pyrrole-3-carboxamide]
5.03		Cc1[nH]c(-c2ccccc2NS(=O)(=O)c2ccc(Cl)cc2)cc1C(N)=O [Example 81, 5-(2-{[(4-chlorophenyl)sulfonyl]amino}phenyl)-2-methyl-1H-pyrrole-3-carboxamide]
5.36		Cc1[nH]c(-c2ccccc2-n2ccc(=O)cc2)cc1C(N)=O [Example 120]
6.20		Cc1[nH]c(-c2ccccc2NC2CN3CCC2CC3)cc1C(N)=O (stereo not shown) [Example 71, 5-[2-(1-azabicyclo[2.2.2]oct-3-ylamino)phenyl]-2-methyl-1H-pyrrole-3-carboxamide]
5.07		Cc1[nH]c(-c2ccccc2NS(=O)(=O)c2ccc(O)cc2)cc1C(N)=O [Example 88, 5-(2-{[(4-hydroxyphenyl)sulfonyl]amino}phenyl)-2-methyl-1H-pyrrole-3-carboxamide]
